Reference: patent US10316049B2, “Tank-binding kinase inhibitor compounds” (Gilead Sciences, Inc., priority 2015, dated 2019)
pIC50: −log10 of the molar value.

What was measured:
TBK1 = target: T1, TBK1 (Homo sapiens, UniProt Q9UHD2); test: TR-FRET enzymatic activity assay, TBK1; assay type: biochemical; note: full length recombinant TBK1 at 2.5 nM
T1 construct: TBK1 and IKKε were expressed and purified as full length recombinant proteins; made in house
T1 sequence (Q9UHD2 1-729): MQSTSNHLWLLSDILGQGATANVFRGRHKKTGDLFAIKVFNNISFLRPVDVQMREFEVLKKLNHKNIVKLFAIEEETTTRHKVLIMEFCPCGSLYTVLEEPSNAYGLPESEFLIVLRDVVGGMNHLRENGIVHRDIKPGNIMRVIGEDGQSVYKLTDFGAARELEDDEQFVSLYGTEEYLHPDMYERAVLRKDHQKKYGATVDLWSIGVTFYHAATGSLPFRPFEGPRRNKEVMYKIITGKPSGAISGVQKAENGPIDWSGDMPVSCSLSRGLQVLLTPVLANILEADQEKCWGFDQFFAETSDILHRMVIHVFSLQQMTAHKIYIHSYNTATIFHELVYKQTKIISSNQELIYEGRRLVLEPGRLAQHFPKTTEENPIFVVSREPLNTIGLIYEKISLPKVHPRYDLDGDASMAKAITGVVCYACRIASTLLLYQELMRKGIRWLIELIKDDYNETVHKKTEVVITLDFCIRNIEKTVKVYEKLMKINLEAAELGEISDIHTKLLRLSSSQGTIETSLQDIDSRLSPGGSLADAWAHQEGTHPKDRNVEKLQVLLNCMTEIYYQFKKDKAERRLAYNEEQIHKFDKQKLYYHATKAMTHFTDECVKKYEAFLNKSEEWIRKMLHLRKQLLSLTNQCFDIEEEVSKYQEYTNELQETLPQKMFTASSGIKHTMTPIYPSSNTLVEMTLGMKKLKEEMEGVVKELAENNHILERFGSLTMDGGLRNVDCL
Method: (§1) Biological Assay for TBK1 and IKKε:
(§2) Enzymatic activity of IKKε and TBK1 was measured using a homogeneous time resolved fluorescence resonance energy transfer (TR-FRET) assay that monitors enzyme dependent phosphorylation of a biotinylated serine/threonine peptide substrate. An increase in the amount of phosphorylated peptide results in an increase in TR-FRET signal. TBK1 and IKKε were expressed and purified as full length recombinant proteins. Detection reagents for the assay were purchased from Cisbio. […] After an assay reaction time of 240 minutes at 25° C., reactions were terminated with EDTA.
(§3) Amount of phosphorylated peptide was determined by the addition of 125 nM streptavidin XL665 and europium cryptate labeled anti-phospho monoclonal antibody and the resulting TR-FRET signal was recorded on an Envision plate reader (Ex: 340 nm; Em: 615/665 nm; 100 μs delay and 200 μs read window). Data was normalized based on a positive (1 μM Staurosporine) and negative (DMSO) controls and IC50 values calculated from the fit of the dose-response curves to a four-parameter equation. All IC50 values represent geometric mean values of a minimum of four determinations. These assays generally produced results within 3-fold of the reported mean.

IKKε = target: T2, IKKε (Homo sapiens, UniProt Q14164); test: TR-FRET enzymatic activity assay, IKKε; assay type: biochemical; conditions: read-out: IKKϵ IC50; note: full length recombinant IKKε at 0.3 nM
T2 construct: TBK1 and IKKε were expressed and purified as full length recombinant proteins; made in house
T2 sequence (Q14164 1-716): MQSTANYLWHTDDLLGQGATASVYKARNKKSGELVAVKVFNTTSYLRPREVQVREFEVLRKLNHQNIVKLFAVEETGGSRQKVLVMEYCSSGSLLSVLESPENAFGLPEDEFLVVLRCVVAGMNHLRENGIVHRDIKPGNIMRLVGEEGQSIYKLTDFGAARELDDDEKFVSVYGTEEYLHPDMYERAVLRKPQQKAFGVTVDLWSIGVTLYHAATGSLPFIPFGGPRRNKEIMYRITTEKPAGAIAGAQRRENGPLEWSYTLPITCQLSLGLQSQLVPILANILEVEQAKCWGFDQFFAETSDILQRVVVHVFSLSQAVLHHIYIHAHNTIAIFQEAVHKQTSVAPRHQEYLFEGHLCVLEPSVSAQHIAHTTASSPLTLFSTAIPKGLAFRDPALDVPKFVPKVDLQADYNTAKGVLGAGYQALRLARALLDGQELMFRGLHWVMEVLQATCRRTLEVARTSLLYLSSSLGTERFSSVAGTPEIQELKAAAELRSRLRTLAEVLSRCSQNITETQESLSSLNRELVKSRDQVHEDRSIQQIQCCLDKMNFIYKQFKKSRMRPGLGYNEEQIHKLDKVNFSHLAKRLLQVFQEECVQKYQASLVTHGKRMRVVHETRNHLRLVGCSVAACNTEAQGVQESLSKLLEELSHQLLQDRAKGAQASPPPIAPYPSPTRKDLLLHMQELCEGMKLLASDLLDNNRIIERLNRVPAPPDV
Method: as §1
as §2, with “An increase in the amount of phosphorylated peptide results in an increase in TR-FRET signal.” left out
as §3, with “determinations.” for “determinations. These assays generally produced results within 3-fold of the reported mean.”

Row | SMILES | pIC50 (TBK1) | pIC50 (IKKε)
1 | CC1(C)C[C@@H]1C(=O)Nc1cc(-c2ccc(O[C@H]3CCN(C(=O)CO)C[C@H]3F)c(C#N)c2)ccn1 [Example 69, (S)—N-(4-(3-Cyano-4-(((3R,4S)-3-fluoro-1-(2-hydroxyacetyl)piperidin-4-yl)oxy)phenyl)pyridin-2-yl)-2,2-dimethylcyclopropane-1-carboxamide] | 7.36 | 6.88
2 | N#Cc1cc(-c2ccnc(NC(=O)C3CC3)c2)ccc1N1CC[C@@H](O)C1 [Example 17, (R)—N-(4-(3-cyano-4-(3-hydroxypyrrolidin-1-yl)phenyl)pyridin-2-yl)cyclopropanecarboxamide] | 7.38 | 6.63
3 | N#Cc1cc(-c2ccnc(NC(=O)[C@H]3C[C@H]3F)c2)ccc1N1CCC(O)CC1 [Example 65, (1R,2R)—N-(4-(3-cyano-4-(4-hydroxypiperidin-1-yl)phenyl)pyridin-2-yl)-2-fluorocyclopropane-1-carboxamide] | 6.33 | < 6.00
4 | N#Cc1cc(-c2cc(NC(=O)C3CC3)ncn2)ccc1O[C@H]1CCN(C(=O)CO)C[C@H]1F [Example 19, N-(6-(3-cyano-4-(((3R,4S)-3-fluoro-1-(2-hydroxyacetyl)piperidin-4-yl)oxy)phenyl)pyrimidin-4-yl)cyclopropanecarboxamide] | 7.81 | 7.27
5 | N#Cc1cc(-c2ccnc(NC(=O)[C@@H]3C[C@H]3C(=O)NCCO)c2)ccc1OC1CCOCC1 (relative stereo) [Example 46, (1,2-trans)-N1-(4-(3-cyano-4-((tetrahydro-2H-pyran-4-yl)oxy)phenyl)pyridin-2-yl)-N2-(2-hydroxyethyl)cyclopropane-1,2-dicarboxamide] | 6.52 | 6.37
6 | N#Cc1cc(-c2ccnc(NC(=O)[C@@H]3C[C@@H]3CO)c2)ccc1O[C@H]1CCN(C(=O)CO)C[C@H]1F [Example 74, (1,2-cis)-N-(4-(3-Cyano-4-(((3R,4S)-3-fluoro-1-(2-hydroxyacetyl)piperidin-4-yl)oxy)phenyl)pyridin-2-yl)-2-(hydroxymethyl)cyclopropane-1-carboxamide] | 7.00 | 6.84
7 | CC(=O)NC1C2CC1C2C(=O)Nc1cc(-c2ccc(OC3CCOCC3)c(C#N)c2)ccn1 (stereo not drawn) [Example 55, 4-acetamido-N-(4-(3-cyano-4-((tetrahydro-2H-pyran-4-yl)oxy)phenyl)pyridin-2-yl)bicyclo[1.1.1]pentane-2-carboxamide] | < 6.00 | < 6.00
8 | N#Cc1cc(-c2ccnc(NC(=O)C3(CF)CC3)c2)ccc1OC1CCOCC1 [Example 49, N-(4-(3-cyano-4-((tetrahydro-2H-pyran-4-yl)oxy)phenyl)pyridin-2-yl)-1-(fluoromethyl)cyclopropane-1-carboxamide] | < 6.00 | < 6.00
9 | N#Cc1cc(-c2ccnc(NC(=O)C3CC3(F)F)c2)ccc1O[C@H]1CCN(C(=O)CO)C[C@H]1F (stereo partly drawn) [Example 58, N-(4-(3-cyano-4-(((3R,4S)-3-fluoro-1-(2-hydroxyacetyl)piperidin-4-yl)oxy)phenyl)pyridin-2-yl)-2,2-difluorocyclopropane-1-carboxamide] | 7.31 | 7.52
10 | N#Cc1cc(-c2ccnc(NC(=O)C3CC3)c2)ccc1OC1CCOCC1 [Example 2, N-(4-(3-cyano-4-((tetrahydro-2H-pyran-4-yl)oxy)phenyl)pyridin-2-yl)cyclopropanecarboxamide] | 7.55 | 6.94
11 | N#Cc1cc(-c2ccnc(NC(=O)C3CC3)c2)ccc1O[C@H]1CCN(C(=O)[C@@H]2CCC(=O)N2)CC1(F)F [Example 14, N-(4-(3-cyano-4-(((S)-3,3-difluoro-1-((S)-5-oxopyrrolidine-2-carbonyl)piperidin-4-yl)oxy)phenyl)pyridin-2-yl)cyclopropanecarboxamide] | 8.26 | 7.73

Further lines, results first:

Row | pIC50 (TBK1) | pIC50 (IKKε) | SMILES
12 | 7.15 | 6.29 | N#Cc1cc(-c2ccnc(NC(=O)C3CC3)c2)ccc1N1CCC[C@H]1CO [Example 93, (S)—N-(4-(3-cyano-4-(2-(hydroxymethyl)pyrrolidin-1-yl)phenyl)pyridin-2-yl)cyclopropanecarboxamide]
13 | 7.80 | 7.44 | N#Cc1cc(-c2cc(NC(=O)[C@@H]3C[C@H]3c3cccnc3)ncn2)ccc1O[C@H]1CCN(C(=O)CO)C[C@H]1F [Example 147, (1,2-Trans)-N-(6-(3-cyano-4-(((3R,4S)-3-fluoro-1-(2-hydroxyacetyl)piperidin-4-yl)oxy)phenyl)pyrimidin-4-yl)-2-(pyridin-3-yl)cyclopropane-1-carboxamide]
14 | 7.72 | 7.50 | Cn1cc([C@@H]2C[C@H]2C(=O)Nc2cc(-c3ccc(O[C@H]4CCN(C(=O)CO)C[C@H]4F)c(C#N)c3)ccn2)cn1 (single isomer, unassigned) [Example 125]
15 | 7.63 | 6.85 | N#CCC(=O)N1CC[C@H](Oc2ccc(-c3cc(NC(=O)C4CC4)ncn3)cc2C#N)C(F)(F)C1 [Example 153, (S)—N-(6-(3-cyano-4-((1-(2-cyanoacetyl)-3,3-difluoropiperidin-4-yl)oxy)phenyl)pyrimidin-4-yl)cyclopropanecarboxamide]
16 | 7.15 | 6.20 | N#Cc1cc(-c2ccnc(NC(=O)[C@@H]3C[C@H]3c3ccco3)c2)ccc1OC1CCOCC1 (relative stereo) [Example 150, Trans-N-(4-(3-cyano-4-((tetrahydro-2H-pyran-4-yl)oxy)phenyl)pyridin-2-yl)-2-(furan-2-yl)cyclopropane-1-carboxamide]
17 | 6.73 | 6.49 | Cc1noc([C@@H]2C[C@H]2C(=O)Nc2cc(-c3ccc(OC4CCOCC4)c(C#N)c3)ccn2)n1 [Example 108, (1R,2R)—N-(4-(3-cyano-4-((tetrahydro-2H-pyran-4-yl)oxy)phenyl)pyridin-2-yl)-2-(3-methyl-1,2,4-oxadiazol-5-yl)cyclopropane-1-carboxamide]
18 | 6.48 | 6.87 | N#Cc1cc(-c2ccnc(NC(=O)[C@@H]3CC3C(=O)O)c2)ccc1O[C@H]1CCN(C(=O)CO)C[C@H]1F (stereo in doubt) [Example 84, (1,2-trans)-2-((4-(3-cyano-4-(((3R,4S)-3-fluoro-1-(2-hydroxyacetyl)piperidin-4-yl)oxy)phenyl)pyridin-2-yl)carbamoyl)cyclopropane-1-carboxylic acid]
